Laboratory results as given in patent publication US20090263489A1, “ANALGESIC AND ANTI-INFLAMMATORY COMPOSITIONS AND METHODS FOR REDUCING, PREVENTING OR TREATING PAIN AND INFLAMMATION” (Warsaw Orthopedic, Inc., priority 2008, published 2009).
Entries after “also recorded” stand apart in the source; their conditions may differ. Counter-ions that a name gives are not always drawn.

Columns and labels:
[1] = Solubility noted for preparing the formulations
[2] = test system: chronic constriction injury (CCI) rats; experiment: Mechanical allodynia (von Frey monofilaments, 50% paw withdrawal threshold) in chronic constriction injury model; assay type: in vivo, Wistar rats; settings: days 8 and 15, vs control (PBS)
Procedure: (§1) The behavioral animal model of chronic constriction injury (“CCI”) was chosen to evaluate the efficacy of an analgesic and anti-inflammatory agent as a pain and inflammation treatment. This model may mimic pain associated with sciatica in humans.
(§2) Fifty-Six male Wistar rats (Charles River Laboratories, Wilmington, Mass.) weighing 300±26 g the day of surgery (Day 1) were used in this study. All experiments were conducted in accordance with the International Association for the Study of Pain guidelines and approved by the Institutional Animal Care and Use Committee at SRI International, Inc (Menlo Park, Calif.). CCI was induced according to the method of Bennett and Xie. Briefly, each animal was anesthetized by intraperitoneal (IP) injection of sodium pentobarbital at a dose of 60 mg/kg. The animal's common sciatic nerve was exposed and freed from adherent tissue at mid-thigh by separating the biceps femoris muscles by blunt dissection. Four loose ligatures were placed 1 mm apart, using chromic gut suture (4-0 absorbable suture; Jorgensen Laboratories, Inc., Loveland, Colo.).
(§3) Seven animals were randomly assigned to each treatment group.
Mechanical allodynia was measured using von Frey monofilaments (Stoelting, Wood Dale, Ill.) with varying stiffness (2.0-15.0 g) on Days −1, 8, and 15 as described previously (see FIG. 4). Animals were placed on a perforated metallic platform and allowed to habituate to their surroundings for a minimum of 15 minutes before testing. The 50% paw withdrawal threshold response was determined by a sequential increasing and/or decreasing of the stimulus strength (the “up-down method” of Dixon). Each filament was applied with enough pressure to cause a buckling effect. Absence of a paw lifting/withdrawal response after 5 seconds prompted the use of the filament of next higher weight. Paw withdrawal indicating a positive response prompted the use of a weaker filament. After the initial response (i.e., paw withdrawal), the testing continued for four additional measurements and was used to calculate the response threshold. Four consecutive positive responses received a score of 0.25 g, and five consecutive negative responses (i.e., no paw withdrawal) received a score of 15 g. The 50% paw withdrawal threshold was calculated using the formula: 10(Xf+kd)/10,000, where Xf is the final von Frey filament used (log units), k is a value that analyzes the response pattern (taken from the table published by Chaplan et al.), and d is the mean difference between stimuli (log units). The mean and standard error of the mean (SEM) were determined for each treatment group.

[3] = test system: chronic constriction injury (CCI) rats; experiment: Thermal paw withdrawal latency (Hargreaves test) in chronic constriction injury model; assay type: in vivo, Wistar rats; settings: days 7 and 14, vs control (PBS)
Procedure: as §1, §2, §3
Withdrawal latencies to a noxious thermal stimulus were measured according to the Hargreaves test using a plantar analgesia instrument (Stoelting, Wood Dale, Ill.) on Days −2, 7, and 14 (see FIG. 3). The radiant infrared heat source stimulus intensity was set to IR50 and the cut-off time was set at 15 seconds. Rats were placed on a glass platform and allowed to habituate to the testing chambers for a minimum of 15 minutes prior to each testing session. The thermal stimulus was applied to the plantar surface of the paw. Thermal thresholds were defined as the latency in seconds at the first pain behavior, which includes paw withdrawal, flinching, biting and/or licking of the stimulated paw. The readings for all animals were averaged and the mean and standard error of the mean (SEM) were determined for each treatment group.

[4] = 2 mg/kg/day IP daily, listed as sulindac

SMILES: COc1cccc([C@]2(O)CCCC[C@H]2CN(C)C)c1 (racemic) [Tramadol, (±)cis-2-[(dimethylamino)methyl]-1-(3-methoxyphenyl)cyclohexanol hydrochloride]
- solubility ([1]; saline, saline or isotonic): ≥ 25 mg/mL

SMILES: N=C(N)NCCSSCCNC(=N)N [GED, guanidinoethyldisulfide]
- mechanical thresholds (von Frey): reducing pain and/or inflammation ([2]; 1 mg/kg/day IP daily): effective at reducing pain and/or inflammation for 15 days; also recorded: particularly effective at reducing pain and/or inflammation
- mechanical thresholds (von Frey): reducing pain and/or inflammation ([2]; 3 mg/kg/day IP daily): effective at reducing pain and/or inflammation for 15 days
- thermal paw withdrawal latency: reducing pain and/or inflammation ([3]; 1 mg/kg/day IP daily): effective at reducing pain and/or inflammation for 14 days
- thermal paw withdrawal latency: reducing pain and/or inflammation ([3]; 3 mg/kg/day IP daily): effective at reducing pain and/or inflammation for 14 days; also recorded: particularly effective at reducing pain and/or inflammation
- solubility in organic solvents ([1]; printed 'irganic solvents'): insoluble
- solubility ([1]; water): ≤ 5 mg/mL

SMILES: CC[C@H](C)C(=O)O[C@H]1C[C@@H](C)C=C2C=C[C@H](C)[C@H](CC[C@@H]3C[C@@H](O)CC(=O)O3)[C@H]21 [Lovastatin, lovastatin]
- mechanical thresholds (von Frey): reducing pain and/or inflammation ([2]; 0.3 mg/kg/day IP daily): effective at reducing pain and/or inflammation for 15 days
- mechanical thresholds (von Frey): reducing pain and/or inflammation ([2]; 3 mg/kg/day IP daily): effective at reducing pain and/or inflammation for 15 days
- mechanical thresholds (von Frey): reducing pain and/or inflammation ([2]; 3 mg/kg/day IP daily, listed as lovastatin): particularly effective at reducing pain and/or inflammation
- thermal paw withdrawal latency: reducing pain and/or inflammation ([3]; 0.3 mg/kg/day IP daily): effective at reducing pain and/or inflammation for 14 days
- thermal paw withdrawal latency: reducing pain and/or inflammation ([3]; 3 mg/kg/day IP daily): effective at reducing pain and/or inflammation for 14 days; also recorded: particularly effective at reducing pain and/or inflammation
- Soluble in DMSO ([1]; DMSO): up to 40 mg/kg

SMILES: CC1=C(CC(=O)O)c2cc(F)ccc2C1=Cc1ccc([S+](C)[O-])cc1 (centres unmarked) [Sulindac, 2-[6-fluoro-2-methyl-3-[(4-methylsulfinylphenyl)-methylidene]inden-1-yl]-acetic acid]
- mechanical thresholds (von Frey): reducing pain and/or inflammation ([2]; 2 mg/kg/day IP daily): particularly effective at reducing pain and/or inflammation
- mechanical thresholds (von Frey): reducing pain and/or inflammation [2, 4]: effective at reducing pain and/or inflammation for 15 days
- thermal paw withdrawal latency: reducing pain and/or inflammation ([3]; 2 mg/kg/day IP daily): particularly effective at reducing pain and/or inflammation
- thermal paw withdrawal latency: reducing pain and/or inflammation [3, 4]: effective at reducing pain and/or inflammation for 14 days
